Assay results reported in patent US12522582B2 (Gilead Sciences, Inc., priority 2022, dated 2026).
Read-outs that look alike come from different tables or passages of the source.

What was measured:
[1] = MT-4 CC50 Assay (CellTiter Glo); type: cell-based; conditions: human, MT-4 cells, luminescence, read-out: CC50-MT4
Method: Compounds were tested in 384-well plates: 18 compounds in duplex. Compounds were diluted in 7 points, 3-fold with DMSO by Bravo. Assay plate, which contains 20 uL medium with compounds, was seeded 2000 MT-4 cells in 20 uL/well by Multi-drop to start the assay. The plate was incubated at 37° C. for 5 days. On 6th day, the CellTiter Glo 40 uL was added in each well. Luminescence was read by Victor II.

HSV-2 virus (MS strain) = assay: HSV-2 Cellomics Assay (immunofluorescence of HSV protein gD in infected ARPE-19 cells); conditions: Human alphaherpesvirus 2, ARPE-19, 16 h
Method: Compounds were tested for their ability to inhibit HSV-2 replication by monitoring the expression of the HSV protein gD using a high-throughput immunofluorescence-based assay. 10-dose, 3-fold serial dilutions of compounds were prepared at starting concentrations of 0.2 or 2 mM in 100% DMSO. […] The final starting concentration in the assay was either 1 or 10 μM. DMSO (no compound) and pritelivir were included on each microplate as negative and positive controls, respectively.
Prior to confluence, cells were transferred to a centrifuge tube and spun for 5 minutes at 1000 rpm. Cells were resuspended in assay medium (DMEM/F-12 Glutamax, 2% FBS, 1% Penicillin-Streptomycin) and counted. Cell density was adjusted to 150,000 cells/ml and infected with HSV-2 virus (MS strain, ATCC cat #VR-540) at a MOI of 0.06 in a 50 ml conical tube for 1 hour under constant rocking. Cells were then spun for 5 minutes at 1000 rpm and the media replaced with assay medium containing either 2% FBS or 10% human serum (EMD Millipore cat #S1-100 ML). 50 μl of the infection suspension were added into microplate wells that were pre-spotted with compounds (7,500 cells per well). Plates were incubated for 16 hours at 37° C.
After a 30-minute incubation at room temperature, plates were washed 4 times with 100 μl/well of PBS using a Biotek plate washer. […] Plates were washed 4 times again and 50 μl of DPBS were added to all wells prior to sealing the plates with a black adhesive seal. Fluorescence was measured on a Cellomics plate reader.
Data analysis was carried out using the Thermo Scientific HCS Studio software. Briefly, cells were identified using the DAPI nuclear stain and thresholds were set to filter cells out based on shape and size. A second threshold based on green fluorescence intensity (detection of HSV-2 gD) was set to identify HSV-2 infected cells. Data was reported as the average fluorescence intensity of HSV-2 infected cells.

[2] = read-out: EC50-HSV2-10% Human Serum

Structure (SMILES)	CC50 at 5 days [1]	EC50 (HSV-2 virus (MS strain); [2])	EC50 (HSV-2 virus (MS strain); read-out: EC50-HSV2-FBS)
CC[C@@H]1Cc2ccc(S(N)(=O)=O)cc2N1C(=O)[C@@H]1Cc2ccc(-c3ccccn3)cc2C1 [Example 68, (R)-2-ethyl-1-((R)-5-(pyridin-2-yl)-2,3-dihydro-1H-indene-2-carbonyl)indoline-6-sulfonamide]	≥ 10000 nM	233 nM	31 nM
CC1c2ccc(-n3cccn3)cc2CC1C(=O)N1CCc2cc(F)c(S(N)(=O)=O)cc21 (centres unmarked) [Example 100]	5430 nM	107 nM	34 nM
CC1c2ccc(-c3ccccn3)cc2CC1C(=O)N1CCc2cc(F)c(S(N)(=O)=O)cc21 (centres unmarked) [Example 96, 5-fluoro-1-(1-methyl-5-(pyridin-2-yl)-2,3-dihydro-1H-indene-2-carbonyl) indoline-6-sulfonamide]	12900 nM	85 nM	24 nM
NS(=O)(=O)c1cc2c(cc1F)CCN2C(=O)C1Cc2ccc(-c3ccccn3)cc2C1 (centres unmarked) [Example 8]	42300 nM	22700 nM	9.9 nM
NS(=O)(=O)c1ccc2c(c1)N(C(=O)[C@H]1Cc3ccc(-c4ncccc4F)cc3C1)CC2 [Example 88, (S)-1-(5-(3-fluoropyridin-2-yl)-2,3-dihydro-1H-indene-2-carbonyl)indoline-6-sulfonamide]	1800 nM	–	535 nM
Cc1cccc(-c2ccc3c(c2)C[C@H](C(=O)N2CCc4ccc(S(N)(=O)=O)cc42)C3)n1 [Example 90, (R)-1-(5-(6-methylpyridin-2-yl)-2,3-dihydro-1H-indene-2-carbonyl)indoline-6-sulfonamide]	36900 nM	14600 nM	23 nM
C[S@](=N)(=O)c1cc2c(cc1F)CCN2C(=O)[C@@H]1Cc2ccc(-c3ccccn3)cc2C1 [Example 41, (S)-(5-fluoro-1-((R)-5-(pyridin-2-yl)-2,3-dihydro-1H-indene-2-carbonyl)indolin-6-yl)(imino)(methyl)-16-sulfanone]	≥ 10000 nM	140 nM	37 nM
C[S@](=N)(=O)c1ccc2c(c1)N(C(=O)[C@@H]1Cc3ccc(-c4ccccn4)cc3C1)CC2 (single isomer, unassigned) [Example 33]	≥ 50000 nM	1370 nM	165 nM
NS(=O)(=O)c1ccc2c(c1)N(C(=O)[C@@H]1Cc3ccc(-c4ccccn4)cc3C1)CC21CC1 [Example 64, (R)-1′-(5-(pyridin-2-yl)-2,3-dihydro-1H-indene-2-carbonyl)spiro[cyclopropane-1,3′-indoline]-6′-sulfonamide]	≥ 10000 nM	≥ 10000 nM	115 nM
Cc1cccc(-c2ccc3c(c2)CC(C(=O)N2CCc4cc(F)c(S(N)(=O)=O)cc42)C3C)n1 (centres unmarked) [Example 99, 5-fluoro-1-(1-methyl-5-(6-methylpyridin-2-yl)-2,3-dihydro-1H-indene-2-carbonyl) indoline-6-sulfonamide]	≥ 10000 nM	396 nM	63 nM
NS(=O)(=O)c1ccc2c(c1)N(C(=O)[C@@H]1Cc3ccc(-n4cccn4)cc3C1)CC2 [Example 91, (R)-1-(5-(1H-pyrazol-1-yl)-2,3-dihydro-1H-indene-2-carbonyl)indoline-6-sulfonamide]	≥ 50000 nM	11600 nM	40 nM
C[C@@H]1Cc2cc(Br)c(S(N)(=O)=O)cc2N1C(=O)[C@@H]1Cc2ccc(-c3ccccn3)cc2C1 [Example 38, (R)-5-bromo-2-methyl-1-((R)-5-(pyridin-2-yl)-2,3-dihydro-1H-indene-2-carbonyl)indoline-6-sulfonamide]	≥ 10000 nM	543 nM	19 nM
NS(=O)(=O)c1cc2c(cc1F)CCN2C(=O)C1Cc2cc(-c3ccccn3)ccc2O1 (centres unmarked) [Example 37]	≥ 50000 nM	19300 nM	10 nM
NS(=O)(=O)c1ccc2c(c1)N(C(=O)C1Cc3cc(-c4ccccn4)ccc3O1)CC2 (centres unmarked) [Example 36]	≥ 50000 nM	≥ 25000 nM	71 nM
C[C@@H]1Cc2ccc(S(N)(=O)=O)cc2N1C(=O)[C@H]1Cc2cc(-c3cc(F)ccc3F)ccc2O1 [Example 123, (R)-1-((R)-5-(2,5-difluorophenyl)-2,3-dihydrobenzofuran-2-carbonyl)-2-methylindoline-6-sulfonamide]	≥ 10000 nM	291 nM	46 nM
C[S@](=N)(=O)c1cc2c(cc1F)CCN2C(=O)[C@@H]1Cc2ccc(-c3cc(F)ccc3F)cc2C1 [Example 53]	≥ 10000 nM	415 nM	48 nM
C[C@@H]1c2cc(F)c(S(N)(=O)=O)cc2N(C(=O)[C@@H]2Cc3ccc(-c4ccccn4)cc3C2)[C@@H]1C [Example 48, (2R,3R)-5-fluoro-2,3-dimethyl-1-((R)-5-(pyridin-2-yl)-2,3-dihydro-1H-indene-2-carbonyl)indoline-6-sulfonamide]	≥ 10000 nM	104 nM	16 nM
NS(=O)(=O)c1ccc2c(c1)N(C(=O)C1Cc3ccc(-c4cocn4)cc3C1)CC2 (centres unmarked) [Example 23]	≥ 50000 nM	11000 nM	19 nM
C[C@@H]1Cc2cc(F)c(S(N)(=O)=O)cc2N1C(=O)[C@@H]1Cc2ccc(-c3cc(F)cc(F)c3F)cc2C1 [Example 62, (R)-5-fluoro-2-methyl-1-((R)-5-(2,3,5-trifluorophenyl)-2,3-dihydro-1H-indene-2-carbonyl)indoline-6-sulfonamide]	≥ 10000 nM	318 nM	59 nM

Structure (SMILES)	CC50 at 5 days [1]	EC50 (HSV-2 virus (MS strain); [2])	EC50 (HSV-2 virus (MS strain); read-out: EC50-HSV2-FBS)
N#Cc1nc(-c2ccc3c(c2)CC(C(=O)N2CCc4ccc(S(N)(=O)=O)cc42)C3)cs1 (centres unmarked) [Example 27]	–	–	383 nM
NS(=O)(=O)c1cc2c(cc1Br)CCN2C(=O)C1Cc2ccc(-c3ccccn3)cc2C1 (centres unmarked) [Example 110, 5-Bromo-1-(5-(pyridin-2-yl)-2,3-dihydro-1H-indene-2-carbonyl)indoline-6-sulfonamide]	–	≥ 25000 nM	26 nM
NS(=O)(=O)c1ccc2c(c1)N(C(=O)C1Cc3ccc(-c4ccsn4)cc3C1)CC2 (centres unmarked) [Example 24]	–	≥ 25000 nM	19 nM
NS(=O)(=O)c1ccc2c(c1)N(C(=O)C1Cc3ccc(-c4ccccn4)c(Cl)c3C1)CC2 (centres unmarked) [Example 11]	–	–	7660 nM
C[C@@H]1CN(C(=O)[C@H]2Cc3cc(-c4ccccn4)c(F)cc3O2)c2cc(S(N)(=O)=O)c(F)cc21 [Example 136, (S)-5-fluoro-1-((R)-6-fluoro-5-(pyridin-2-yl)-2,3-dihydrobenzofuran-2-carbonyl)-3-methylindoline-6-sulfonamide]	–	2220 nM	89.6 nM
C[C@@H]1Cc2ccc(S(N)(=O)=O)cc2N1C(=O)[C@H]1Cc2ccc(-c3ccccn3)cc2C1 (single isomer, unassigned) [Example 14]	–	–	2480 nM
NS(=O)(=O)c1ccc2c(c1)N(C(=O)[C@@H]1Cc3ccc(-c4cc(F)ccc4F)cc3C1)CC2 [Example 45, (R)-1-(5-(2,5-difluorophenyl)-2,3-dihydro-1H-indene-2-carbonyl)indoline-6-sulfonamide]	–	≥ 10000 nM	67 nM
NS(=O)(=O)c1ccc2c(c1)N(C(=O)[C@@H]1Cc3ccc(-c4ccccc4F)cc3C1)CC2 [Example 83, (R)-1-(5-(2-fluorophenyl)-2,3-dihydro-1H-indene-2-carbonyl)indoline-6-sulfonamide]	–	≥ 25000 nM	177 nM
C[C@@H]1CN(C(=O)[C@@H]2Cc3ccc(-c4ccccn4)cc3C2)c2cc(S(N)(=O)=O)ccc21 [Example 108, (S)-3-methyl-1-((R)-5-(pyridin-2-yl)-2,3-dihydro-1H-indene-2-carbonyl)indoline-6-sulfonamide]	–	–	285 nM
NS(=O)(=O)c1ccc2c(c1)N(C(=O)C1Cc3ccc(-c4ccccc4)cc3C1)CC2 (centres unmarked) [Example 69, 1-(5-phenyl-2,3-dihydro-1H-indene-2-carbonyl) indoline-6-sulfonamide]	–	≥ 25000 nM	119 nM
Cc1csc(-c2ccc3c(c2)CC(C(=O)N2CCc4ccc(S(N)(=O)=O)cc42)C3)n1 (centres unmarked) [Example 22]	–	–	48 nM
C[C@@H]1c2ccc(-c3ccccn3)cc2C[C@H]1C(=O)N1CCc2cc(F)c(S(N)(=O)=O)cc21 [Example 98, 5-fluoro-1-((1S,2R)-1-methyl-5-(pyridin-2-yl)-2,3-dihydro-1H-indene-2-carbonyl)indoline-6-sulfonamide]	–	6650 nM	1360 nM
NS(=O)(=O)c1cc(F)c2c(c1)N(C(=O)C1Cc3ccc(-c4ccccn4)cc3C1)CC2 (centres unmarked) [Example 6]	–	≥ 25000 nM	72 nM
CC1c2cc(-c3ccccn3)ccc2CC1C(=O)N1CCc2ccc(S(N)(=O)=O)cc21 (centres unmarked) [Example 95, 1-(1-methyl-6-(pyridin-2-yl)-2,3-dihydro-1H-indene-2-carbonyl) indoline-6-sulfonamide]	–	≥ 25000 nM	2850 nM
CS(=N)(=O)c1cc2c(cc1F)CCN2C(=O)[C@@H]1Cc2ccc(-c3ccccn3)cc2C1 (mixture of isomers) [Example 39, (5-fluoro-1-((R)-5-(pyridin-2-yl)-2,3-dihydro-1H-indene-2-carbonyl)indolin-6-yl)(imino)(methyl)-λ^6-sulfanone]	–	188 nM	45 nM
NS(=O)(=O)c1ccc2c(c1)N(C(=O)C1Cc3ccc(-n4cncn4)cc3C1)CC2 (centres unmarked) [Example 79, 1-(5-(1H-1,2,4-triazol-1-yl)-2,3-dihydro-1H-indene-2-carbonyl)indoline-6-sulfonamide]	–	–	2060 nM
NS(=O)(=O)c1ccc2c(c1F)N(C(=O)C1Cc3ccc(-c4ccccn4)cc3C1)CC2 (centres unmarked) [Example 4]	–	≥ 25000 nM	284 nM
NS(=O)(=O)c1cc2c(cc1F)CCN2C(=O)C1Cc2cc(-c3ccccn3)cc(F)c2C1 (centres unmarked) [Example 13]	–	≥ 10000 nM	250 nM
